Test results as given in ChEMBL document CHEMBL4152230, “Discovery of N-{3-[(ethanimidoylamino)methyl]benzyl}-l-prolinamide dihydrochloride: A new potent and selective inhibitor of the inducible nitric oxide synthase as a promising agent for the therapy of malignant glioma” (Eur J Med Chem, 2018).
Blank lines part the entries; values can stand above or below the compound they belong to. The source made the active and inactive calls. The rule behind the calls is not given here.

Key:
[1] = biological target: T1, Nitric oxide synthase, inducible (Mus musculus, UniProt P29477); assay: Inhibition of recombinant mouse iNOS using [3H]L-arginine as substrate preincubated for 15 mins followed by NADPH addition measured after 20 mins in presence of FMN/FAD by liquid scintillation counting method
T1 sequence (P29477 whole entry): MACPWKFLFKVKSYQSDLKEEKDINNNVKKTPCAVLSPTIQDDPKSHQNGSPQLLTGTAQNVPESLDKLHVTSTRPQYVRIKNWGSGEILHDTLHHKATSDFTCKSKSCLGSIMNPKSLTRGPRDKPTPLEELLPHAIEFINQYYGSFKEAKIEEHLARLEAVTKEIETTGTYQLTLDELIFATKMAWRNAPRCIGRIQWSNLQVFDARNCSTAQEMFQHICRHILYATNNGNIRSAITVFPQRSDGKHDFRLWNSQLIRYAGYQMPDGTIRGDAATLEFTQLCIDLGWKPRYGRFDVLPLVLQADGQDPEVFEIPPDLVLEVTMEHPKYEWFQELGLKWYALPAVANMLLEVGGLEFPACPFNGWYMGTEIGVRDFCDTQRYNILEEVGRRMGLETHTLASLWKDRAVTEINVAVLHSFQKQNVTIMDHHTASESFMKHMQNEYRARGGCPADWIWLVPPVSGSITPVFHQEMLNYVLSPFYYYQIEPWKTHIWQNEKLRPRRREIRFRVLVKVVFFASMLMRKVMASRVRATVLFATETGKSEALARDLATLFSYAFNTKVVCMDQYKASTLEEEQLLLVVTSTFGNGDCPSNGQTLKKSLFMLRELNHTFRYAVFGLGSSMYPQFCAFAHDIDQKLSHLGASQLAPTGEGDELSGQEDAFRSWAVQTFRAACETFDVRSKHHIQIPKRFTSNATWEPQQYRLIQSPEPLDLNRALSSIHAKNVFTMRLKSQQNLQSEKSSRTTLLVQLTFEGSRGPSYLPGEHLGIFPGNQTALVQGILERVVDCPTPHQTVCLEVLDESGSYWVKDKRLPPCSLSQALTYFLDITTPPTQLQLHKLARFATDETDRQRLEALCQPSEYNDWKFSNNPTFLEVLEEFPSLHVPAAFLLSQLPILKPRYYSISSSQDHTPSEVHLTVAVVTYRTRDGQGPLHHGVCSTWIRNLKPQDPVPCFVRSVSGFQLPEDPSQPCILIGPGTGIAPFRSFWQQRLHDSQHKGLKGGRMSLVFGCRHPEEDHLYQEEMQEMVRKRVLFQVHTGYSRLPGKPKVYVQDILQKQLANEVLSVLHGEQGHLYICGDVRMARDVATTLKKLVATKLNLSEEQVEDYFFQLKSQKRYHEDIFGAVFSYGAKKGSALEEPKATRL

[2] = biological target: T2, Nitric oxide synthase 3 (Bos taurus, UniProt P29473); assay: Inhibition of recombinant bovine eNOS using [3H]L-arginine as substrate preincubated for 15 mins followed by NADPH addition measured after 20 mins in presence of FMN/FAD by liquid scintillation counting method
T2 sequence (P29473 whole entry): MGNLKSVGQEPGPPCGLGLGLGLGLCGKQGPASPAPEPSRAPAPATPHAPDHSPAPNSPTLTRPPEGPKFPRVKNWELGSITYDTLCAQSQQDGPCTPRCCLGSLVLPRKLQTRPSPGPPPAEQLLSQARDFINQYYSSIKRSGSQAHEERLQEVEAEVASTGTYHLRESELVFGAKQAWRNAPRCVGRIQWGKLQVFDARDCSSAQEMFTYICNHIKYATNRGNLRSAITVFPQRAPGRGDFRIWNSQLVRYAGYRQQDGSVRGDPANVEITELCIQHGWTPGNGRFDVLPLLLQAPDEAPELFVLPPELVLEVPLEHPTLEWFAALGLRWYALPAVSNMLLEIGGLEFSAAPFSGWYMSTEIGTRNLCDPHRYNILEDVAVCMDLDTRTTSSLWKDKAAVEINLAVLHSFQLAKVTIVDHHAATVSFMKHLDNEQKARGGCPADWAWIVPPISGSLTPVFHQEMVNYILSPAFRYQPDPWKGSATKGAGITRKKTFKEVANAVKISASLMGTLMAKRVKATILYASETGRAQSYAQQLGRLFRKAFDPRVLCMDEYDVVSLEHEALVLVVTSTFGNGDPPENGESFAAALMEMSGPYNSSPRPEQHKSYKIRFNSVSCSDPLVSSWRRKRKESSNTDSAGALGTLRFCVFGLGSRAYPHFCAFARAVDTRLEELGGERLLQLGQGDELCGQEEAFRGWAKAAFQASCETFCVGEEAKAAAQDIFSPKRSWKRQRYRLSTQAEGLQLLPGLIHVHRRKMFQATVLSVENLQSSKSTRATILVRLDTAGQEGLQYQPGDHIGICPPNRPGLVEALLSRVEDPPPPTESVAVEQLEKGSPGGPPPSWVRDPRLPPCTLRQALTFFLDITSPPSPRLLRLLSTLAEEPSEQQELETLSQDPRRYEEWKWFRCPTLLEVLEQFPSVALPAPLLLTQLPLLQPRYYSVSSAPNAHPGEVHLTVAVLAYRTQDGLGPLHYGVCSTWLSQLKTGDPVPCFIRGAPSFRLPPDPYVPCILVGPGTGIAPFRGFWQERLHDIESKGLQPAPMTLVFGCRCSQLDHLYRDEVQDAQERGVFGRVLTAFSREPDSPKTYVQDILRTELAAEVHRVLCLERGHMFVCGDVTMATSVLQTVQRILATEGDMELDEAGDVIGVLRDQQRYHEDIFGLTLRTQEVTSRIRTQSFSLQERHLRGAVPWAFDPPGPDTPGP

[3] = Selectivity index, ratio of IC50 for recombinant bovine eNOS to IC50 for recombinant mouse iNOS
[4] = biological target: Nitric oxide synthase, inducible (Rattus norvegicus) (UniProt Q06518); assay: (§1) Ex vivo inhibition of iNOS in mesenteric vascular arteries isolated from LPS-induced septic shock Sprague-Dawley rat model assessed as increase in noradrenaline-mediated vasoconstriction by measuring changes in perfusion pressure at 100 uM preincubated for 30 mins followed by noradrenaline treatment
Sequence of Nitric oxide synthase, inducible (Rattus norvegicus) (Q06518 whole entry, the tested form may be a part): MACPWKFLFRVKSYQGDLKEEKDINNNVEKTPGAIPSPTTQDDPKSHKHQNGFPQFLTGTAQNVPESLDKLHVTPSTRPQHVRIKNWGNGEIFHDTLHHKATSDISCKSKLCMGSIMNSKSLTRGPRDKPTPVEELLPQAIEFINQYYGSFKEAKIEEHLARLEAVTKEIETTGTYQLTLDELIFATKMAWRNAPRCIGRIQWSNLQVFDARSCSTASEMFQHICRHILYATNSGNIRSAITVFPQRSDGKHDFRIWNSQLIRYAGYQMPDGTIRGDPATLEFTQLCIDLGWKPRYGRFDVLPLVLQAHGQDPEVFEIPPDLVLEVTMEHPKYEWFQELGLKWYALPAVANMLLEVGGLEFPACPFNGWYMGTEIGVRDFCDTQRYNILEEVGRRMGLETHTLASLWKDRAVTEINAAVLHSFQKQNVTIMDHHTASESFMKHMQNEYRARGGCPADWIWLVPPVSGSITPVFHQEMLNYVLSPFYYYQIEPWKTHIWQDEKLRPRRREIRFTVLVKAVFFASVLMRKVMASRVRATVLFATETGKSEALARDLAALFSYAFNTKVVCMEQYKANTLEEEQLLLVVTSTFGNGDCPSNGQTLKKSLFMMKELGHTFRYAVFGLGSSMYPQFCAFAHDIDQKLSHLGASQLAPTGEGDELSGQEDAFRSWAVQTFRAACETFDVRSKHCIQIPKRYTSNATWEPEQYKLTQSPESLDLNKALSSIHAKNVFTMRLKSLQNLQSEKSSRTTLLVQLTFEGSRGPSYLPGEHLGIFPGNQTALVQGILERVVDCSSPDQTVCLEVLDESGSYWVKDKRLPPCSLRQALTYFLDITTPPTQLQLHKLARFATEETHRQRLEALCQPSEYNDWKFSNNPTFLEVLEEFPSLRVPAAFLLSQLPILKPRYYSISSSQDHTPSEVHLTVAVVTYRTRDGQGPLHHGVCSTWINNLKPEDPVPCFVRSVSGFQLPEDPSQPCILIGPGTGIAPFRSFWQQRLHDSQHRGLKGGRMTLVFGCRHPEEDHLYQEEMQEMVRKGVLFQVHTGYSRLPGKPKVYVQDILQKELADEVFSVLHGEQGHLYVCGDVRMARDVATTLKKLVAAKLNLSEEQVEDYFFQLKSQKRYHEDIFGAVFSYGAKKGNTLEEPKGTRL

[5] = Half life in pH 9 NaOH solution after 24 hrs by HPLC analysis; type: physicochemical; details: pH 9, pH 9
[6] = biological target: Nitric oxide synthase, inducible (Rattus norvegicus) (UniProt Q06518); assay: as §1, with “0.06” for “100”
[7] = system: C6; assay: Cytotoxicity against rat C6 cells assessed as inhibition of cell proliferation after 24 to 48 hrs by MTT assay; type: functional, cell-based
[8] = system: C6; assay: Cytotoxicity against rat C6 cells assessed as cell proliferation at 2 mM after 24 hrs by MTT assay relative to control; type: functional; details: C6, 24 h, read-out: Activity
[9] = system: C6; assay: Cell cycle arrest in rat C6 cells assessed as accumulation at S phase at 1.5 mM after 72 hrs by propidium iodide staining based flow cytometry (reference value: 22.64%); type: functional
[10] = Cytotoxicity against rat CTX/TNA2 cells assessed as cell proliferation at 1 mM after 48 hrs by MTT assay relative to control; type: cell-based; details: read-out: Activity
[11] = system: C6; assay: Cytotoxicity against rat C6 cells assessed as cell proliferation at 1 mM after 72 hrs by MTT assay relative to control; type: functional; details: C6, 72 h, read-out: Activity
[12] = system: C6; assay: Cytotoxicity against rat C6 cells assessed as LDH release at 2 mM after 72 hrs by CytoTox96 non-radioactive assay (reference value: 5.41%); type: functional
[13] = system: C6; assay: Cytotoxicity against rat C6 cells assessed as LDH release at 0.25 mM after 72 hrs by CytoTox96 non-radioactive assay (reference value: 5.41%); type: functional
[14] = system: C6; assay: Cytotoxicity against rat C6 cells assessed as LDH release at 0.75 mM after 72 hrs by CytoTox96 non-radioactive assay (reference value: 5.41%); type: functional
[15] = Selectivity ratio of IC50 for recombinant rat nNOS to IC50 for recombinant mouse iNOS
[16] = Half life in pH 7.4 PBS buffer after 24 hrs by HPLC analysis; type: physicochemical; details: pH 7.4, pH 7.4
[17] = system: C6; assay: Cytotoxicity against rat C6 cells assessed as LDH release at 0.5 mM after 72 hrs by CytoTox96 non-radioactive assay (reference value: 5.41%); type: functional
[18] = system: C6; assay: Cytotoxicity against rat C6 cells assessed as cell proliferation at 1 mM after 24 hrs by MTT assay relative to control; type: functional; details: C6, 24 h, read-out: Activity
[19] = Cytotoxicity against rat CTX/TNA2 cells assessed as inhibition of cell proliferation at 0.25 to 2 mM up to 72 hrs by MTT assay; type: cell-based; details: 2000 µM
[20] = Half life in human plasma by HPLC analysis; type: ADME, cell-free
[21] = system: C6; assay: Cytotoxicity against rat C6 cells assessed as cell proliferation at 0.25 mM after 48 hrs by MTT assay relative to control; type: functional; details: C6, 48 h, read-out: Activity
[22] = system: C6; assay: Cytotoxicity against rat C6 cells assessed as cell proliferation at 2 mM after 72 hrs by MTT assay relative to control; type: functional; details: C6, 72 h, read-out: Activity
[23] = system: C6; assay: Cell cycle arrest in rat C6 cells assessed as accumulation at G1 phase at 1.5 mM after 72 hrs by propidium iodide staining based flow cytometry (reference value: 63.97%); type: functional
[24] = biological target: Nitric oxide synthase 1 (Rattus norvegicus, UniProt P29476); assay: Inhibition of recombinant rat nNOS using [3H]L-arginine as substrate preincubated for 15 mins followed by NADPH addition measured after 20 mins in presence of FMN/FAD by liquid scintillation counting method
Sequence of Nitric oxide synthase 1 (P29476 whole entry): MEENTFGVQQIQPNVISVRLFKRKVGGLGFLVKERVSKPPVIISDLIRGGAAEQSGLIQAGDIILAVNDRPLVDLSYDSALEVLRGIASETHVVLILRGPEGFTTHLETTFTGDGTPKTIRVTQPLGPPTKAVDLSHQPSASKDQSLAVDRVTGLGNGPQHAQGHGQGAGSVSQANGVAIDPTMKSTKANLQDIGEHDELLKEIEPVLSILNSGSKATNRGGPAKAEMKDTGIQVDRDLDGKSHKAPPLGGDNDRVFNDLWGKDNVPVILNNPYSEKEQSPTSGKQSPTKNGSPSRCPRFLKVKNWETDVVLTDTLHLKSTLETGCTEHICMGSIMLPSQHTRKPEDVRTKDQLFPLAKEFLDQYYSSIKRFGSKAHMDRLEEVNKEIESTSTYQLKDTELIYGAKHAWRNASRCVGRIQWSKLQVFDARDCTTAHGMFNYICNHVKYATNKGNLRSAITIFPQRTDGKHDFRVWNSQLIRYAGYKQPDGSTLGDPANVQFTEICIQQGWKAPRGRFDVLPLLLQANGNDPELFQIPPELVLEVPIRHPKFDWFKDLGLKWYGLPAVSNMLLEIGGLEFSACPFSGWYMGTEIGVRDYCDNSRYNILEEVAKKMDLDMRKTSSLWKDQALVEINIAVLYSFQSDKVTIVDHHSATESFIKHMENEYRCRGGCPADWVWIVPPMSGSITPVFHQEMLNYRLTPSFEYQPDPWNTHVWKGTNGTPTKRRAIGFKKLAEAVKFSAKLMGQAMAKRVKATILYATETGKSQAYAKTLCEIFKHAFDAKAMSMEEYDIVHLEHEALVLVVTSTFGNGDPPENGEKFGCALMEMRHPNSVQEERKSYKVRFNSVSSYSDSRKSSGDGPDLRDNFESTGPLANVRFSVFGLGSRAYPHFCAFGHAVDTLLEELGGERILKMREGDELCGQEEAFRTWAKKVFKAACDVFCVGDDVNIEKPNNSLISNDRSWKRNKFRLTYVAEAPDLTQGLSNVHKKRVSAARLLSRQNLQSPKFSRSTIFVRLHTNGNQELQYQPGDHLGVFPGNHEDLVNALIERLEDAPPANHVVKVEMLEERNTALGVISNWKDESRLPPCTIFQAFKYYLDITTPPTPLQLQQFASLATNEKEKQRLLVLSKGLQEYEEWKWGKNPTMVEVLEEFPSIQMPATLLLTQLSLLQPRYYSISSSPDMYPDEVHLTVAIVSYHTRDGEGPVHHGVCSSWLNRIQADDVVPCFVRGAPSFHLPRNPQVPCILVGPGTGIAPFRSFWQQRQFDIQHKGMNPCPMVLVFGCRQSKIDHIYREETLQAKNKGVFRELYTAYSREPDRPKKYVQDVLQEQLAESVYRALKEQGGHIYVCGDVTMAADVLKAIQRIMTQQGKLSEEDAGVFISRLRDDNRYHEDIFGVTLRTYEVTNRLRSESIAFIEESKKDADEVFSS

[25] = system: C6; assay: Cytotoxicity against rat C6 cells assessed as cell proliferation at 1.5 mM after 24 hrs by MTT assay relative to control; type: functional; details: C6, 24 h, read-out: Activity
[26] = system: C6; assay: Cytotoxicity against rat C6 cells assessed as LDH release at 1 mM after 72 hrs by CytoTox96 non-radioactive assay (reference value: 5.41%); type: functional
[27] = Half life in pH 2 HCl after 24 hrs by HPLC analysis; type: physicochemical; details: HCl solution, pH 2, pH 2
[28] = Cytotoxicity against rat CTX/TNA2 cells assessed as cell proliferation at 1 mM after 24 hrs by MTT assay relative to control; type: cell-based; details: read-out: Activity
[29] = system: C6; assay: Cytotoxicity against rat C6 cells assessed as cell proliferation at 1.5 mM after 72 hrs by MTT assay relative to control; type: functional; details: C6, 72 h, read-out: Activity
[30] = system: C6; assay: Cytotoxicity against rat C6 cells assessed as LDH release at 1.5 mM after 72 hrs by CytoTox96 non-radioactive assay (reference value: 5.41%); type: functional

IC50 [1]: > 10 µM
SMILES: CC(=N)NCc1cccc(CNC(=O)[C@@H](N)Cc2ccccc2)c1

IC50 [2]: > 1000 µM | Ratio IC50 [3]: > 1870 | IC50 [1]: 0.534 µM
SMILES: CC(=N)NCc1cccc(CNC(=O)[C@@H](N)Cc2cnc[nH]2)c1

IC50 [1]: > 10 µM
SMILES: CC(=N)NCc1cccc(CNC(=O)[C@@H](N)Cc2ccc(O)cc2)c1

IC50 [2]: 331 µM | Ratio IC50 [3]: 323 | IC50 [1]: 1.02 µM
SMILES: CC(=N)NCc1cccc(CNC(=O)[C@@H](N)CC(=O)O)c1

IC50 [2]: 300 µM | Ratio IC50 [3]: 1180 | IC50 [1]: 0.253 µM
SMILES: CC(=N)NCc1cccc(CNC(=O)[C@@H](N)CC(C)C)c1

Second part, the compound before the results:

SMILES: COC(=O)[C@@H](N)CCCNC(=N)N[N+](=O)[O-]
inhibition [4]: Active

SMILES: CC(=N)NCc1cccc(CNC(=O)[C@@H](N)CCC(N)=O)c1
IC50 [1]: > 10 µM

SMILES: CC[C@H](C)[C@H](N)C(=O)NCc1cccc(CNC(C)=N)c1
IC50 [2]: > 1000 µM | Ratio IC50 [3]: > 5850 | IC50 [1]: 0.17 µM

SMILES: CC(=N)NCc1cccc(CNC(=O)[C@@H](N)CCCNC(=N)N)c1
IC50 [2]: > 1000 µM | Ratio IC50 [3]: > 2220 | IC50 [1]: 0.45 µM

SMILES: CC(=N)NCc1cccc(CNC(=O)[C@@H]2CCCN2)c1.Cl.Cl
half-life [5]: > 24 h | inhibition [6]: Active | inhibition [7]: Dose-dependent effect | growth at 2000 µM [8]: ≤ 89.5% | Activity [9]: 12.12% | viability at 48 h, 1000 µM [10]: 125% | growth at 1000 µM [11]: 77.5% | IC50 [2]: 265 µM | Activity [12]: <=25.52% | Activity [13]: 26.54% | Activity [14]: 20.99% | Ratio IC50 [15]: > 172 | half-life [16]: > 24 h | Activity [17]: 27.21% | growth at 1000 µM [18]: 118% | Activity [19]: Non-Toxic | half-life [20]: 11 h | growth at 250 µM [21]: 80.4% | Ratio IC50 [3]: 4570 | growth at 2000 µM [22]: 55.2% | Activity [23]: 71.79% | IC50 [24]: > 10 µM | IC50 [1]: 0.058 µM | growth at 1500 µM [25]: 114% | Activity [26]: 16.78% | half-life [27]: > 24 h | viability at 24 h, 1000 µM [28]: 122% | growth at 1500 µM [29]: 63.2% | Activity [30]: 23.27%
